According to US6362369B1, “Phthalic acid diamide derivatives fluorine-containing aniline compounds as starting material, agricultural and horticultural insecticides, and a method for application of the insecticides” (Nihon Nohyaku Co., Ltd., priority 1997, dated 2002):

Assays:
Format in all cases: in vivo
[1] = tested on: diamondback moth (Plutella xylostella); assay: Insecticidal effect on diamondback moth (Test Example 1); settings: for Insecticidal effect, Test Example 1 / Insecticidal effect (Test Example 1), judged from mortality: diamondback moth; for Insecticidal effect on diamondback moth (Test Example 1), judged grade: mortality judged according to the criterion shown in Test Example 1; for Insecticidal effect (Test Example 1), judged from mortality: judged by the criterion of Test Example 1
How it was run: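 Triplicate groups of 10 insects were scored: six days after immersion of oviposited Chinese cabbage seedlings and holding at 25 °C post air-drying, hatched larvae were counted. Mortality derived from these counts and insecticidal effect judged by a set criterion.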

[2] = tested on: common cutworm (Spodoptera Litura); assay: Insecticidal effect on common cutworm (Test Example 2); settings: 500 ppm, 25° C.; for Insecticidal effect, Test Example 2: cabbage leaf immersed; for Insecticidal effect, Test Example 2 / Insecticidal effect on common cutworm (Test Example 2), judged grade: eight days after inoculation; for Insecticidal effect on common cutworm (Test Example 2), judged grade / Insecticidal effect (Test Example 2), judged from mortality: cabbage leaf dip; for Insecticidal effect on common cutworm (Test Example 2), judged grade: second-instar larvae; for Insecticidal effect (Test Example 2), judged from mortality: 8 days after inoculation
How it was run: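 Insecticidal effect was rated from percent mortality of second-instar larvae exposed to air-dried treatment at 25° C for 8 days.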

[3] = tested on: rice leafroller (Cnaphalocrocis medinalis); assay: Insecticidal effect on rice leafroller (Test Example 3); settings: 500 ppm, 25° C., humidity 70%; for Insecticidal effect, Test Example 3: rice lamina immersed; for Insecticidal effect, Test Example 3 / Insecticidal effect on rice leafroller (Test Example 3), judged grade: four days after inoculation; for Insecticidal effect on rice leafroller (Test Example 3), judged grade / Insecticidal effect (Test Example 3), judged from mortality: rice lamina dip; for Insecticidal effect on rice leafroller (Test Example 3), judged grade: third-instar larvae; for Insecticidal effect (Test Example 3), judged from mortality: 4 days after inoculation
How it was run: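 Insecticidal effect is judged by a predefined criterion from dead/alive counts four days after infesting air-dried lamina with third-instar larvae, kept on moistened filter paper at 25° C, 70% humidity.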

[4] = judged by the mortality criterion of Test Example 1
[5] = second-instar larvae of common cutworm
[6] = third-instar larvae of rice leafroller
[7] = mortality judged by criterion of Test Example 1
[8] = common cutworm second-instar larvae
[9] = rice leafroller third-instar larvae

Structure (SMILES)	Insecticidal effect, Test Example 1 [1, 4]	Insecticidal effect, Test Example 2 [2, 5]	Insecticidal effect, Test Example 3 [3, 6]	Insecticidal effect, Test Example 1 [1, 7]	Insecticidal effect, Test Example 2 [2, 8]	Insecticidal effect, Test Example 3 [3, 9]	other results
CC(C)NC(=O)c1c(Cl)cccc1C(=O)Nc1ccc2c(c1)nc(C(F)(F)F)n2C [compound 167]	A (100)	A (100)	A (100)				
Cc1cc(OC(F)(F)F)ccc1NC(=O)c1cc(F)c(F)cc1C(=O)NC(C)C [compound 1287]				A (100)	A (100)	A (100)	
Cc1cc(OC(F)(F)C(F)C(F)(F)F)ccc1NC(=O)c1cccc([N+](=O)[O-])c1C(=O)NC(C)C (stereo not drawn) [compound 716]							Insecticidal effect on diamondback moth (Test Example 1), judged grade [1]: A (100); Insecticidal effect on common cutworm (Test Example 2), judged grade [2]: A (100); Insecticidal effect on rice leafroller (Test Example 3), judged grade [3]: A (100)
Cc1cc(OC(F)(F)C(F)OC(F)(F)F)ccc1NC(=O)c1cccc(Cl)c1C(=O)NC(C)C (stereo not drawn) [compound 149]	A (100)	A (100)	A (100)				
Cc1cc(Oc2ccc(C(F)(F)F)cn2)ccc1NC(=O)c1c(Cl)cccc1C(=O)NC(C)C [compound 249]	A (100)	D (79-50)	A (100)				
CC(C)NC(=O)c1c(Cl)cccc1C(=O)Nc1ccc(C(F)(F)C(F)(F)F)cc1F [compound 1382]				A (100)	A (100)	A (100)	
Cc1cc(Oc2ncccn2)ccc1NC(=O)c1cccc(I)c1C(=O)NC(C)C [compound 1618]							Insecticidal effect (Test Example 1), judged from mortality [1]: A (100); Insecticidal effect (Test Example 2), judged from mortality [2, 5]: C (89-80); Insecticidal effect (Test Example 3), judged from mortality [3, 6]: A (100)
CCNC(=O)c1c(Cl)cccc1C(=O)Nc1ccc(OC(F)F)cc1C [compound 8]	A (100)	A (100)	A (100)				
CC(C)(C)NC(=O)c1c(I)cccc1C(=O)Nc1ccc2c(c1)OC(F)(F)C(F)(F)O2 [compound 1067]				A (100)	A (100)	A (100)	
CC(C)NC(=O)c1c(Cl)cccc1C(=O)Nc1ccc([S+]([O-])C(F)(F)F)cc1 (stereo not drawn) [compound 1001]				A (100)	A (100)	A (100)	
CC(C)NC(=O)c1c(Cl)cccc1C(=O)Nc1ccc2c(c1)OC(F)C(F)(F)O2 (stereo not drawn) [compound 1147]				A (100)	A (100)	A (100)	
Cc1cc(C(F)(F)C(F)(F)F)ccc1NC(=O)c1cccc(I)c1C(=O)N(C(C)C)C(C)C [compound 1081]				A (100)	A (100)	A (100)	
Cc1cc(OC(F)(F)Br)ccc1NC(=O)c1cccc(I)c1C(=O)NC(C)(C)C [compound 1051]				A (100)	A (100)	A (100)	
CC(C)NC(=O)c1c(I)cccc1C(=O)Nc1ccc(SC(F)(F)Br)cc1 [compound 1112]				A (100)	A (100)	A (100)	
CCN(CC)C(=O)c1c(I)cccc1C(=O)Nc1ccc(C(F)(F)F)cc1C [compound 1144]				A (100)	A (100)	A (100)	
Cc1cc(C(F)(F)C(F)(F)F)ccc1NC(=O)c1cccc(Cl)c1C(=O)NC(C)(C)C(Br)CBr (racemic) [compound 1603]							Insecticidal effect (Test Example 1), judged from mortality [1]: A (100); Insecticidal effect (Test Example 2), judged from mortality [2, 5]: A (100); Insecticidal effect (Test Example 3), judged from mortality [3, 6]: A (100)
Cc1cc(NC(=O)c2cccc(I)c2C(=O)NC(C)C)ccc1C(F)(F)C(F)(F)F [compound 1563]							Insecticidal effect (Test Example 1), judged from mortality [1]: A (100); Insecticidal effect (Test Example 2), judged from mortality [2, 5]: A (100); Insecticidal effect (Test Example 3), judged from mortality [3, 6]: A (100)
Cc1cc(C(F)(F)C(F)(F)F)ccc1NC(=O)c1cccc(Br)c1C(=O)NC(C)C [compound 278]	A (100)	A (100)	A (100)				

Structure (SMILES)	Insecticidal effect, Test Example 1 [1, 4]	Insecticidal effect, Test Example 2 [2, 5]	Insecticidal effect, Test Example 3 [3, 6]	Insecticidal effect, Test Example 1 [1, 7]	Insecticidal effect, Test Example 2 [2, 8]	Insecticidal effect, Test Example 3 [3, 9]	other results
Cc1cc(OC(F)(F)C(F)(F)Br)ccc1NC(=O)c1cccc([N+](=O)[O-])c1C(=O)NC(C)C [compound 698]							Insecticidal effect on diamondback moth (Test Example 1), judged grade [1]: A (100); Insecticidal effect on common cutworm (Test Example 2), judged grade [2]: B (99-90); Insecticidal effect on rice leafroller (Test Example 3), judged grade [3]: A (100)
Cc1cc(C(F)(C(F)(F)F)C(F)(F)F)ccc1NC(=O)c1ccccc1C(=O)NC(C)(C)C [compound 1037]				A (100)	A (100)	A (100)	
CC(C)NC(=O)c1c(F)cccc1C(=O)Nc1ccc(OC(F)(F)F)cc1Cl [compound 508]							Insecticidal effect on diamondback moth (Test Example 1), judged grade [1]: A (100); Insecticidal effect on common cutworm (Test Example 2), judged grade [2]: B (99-90); Insecticidal effect on rice leafroller (Test Example 3), judged grade [3]: A (100)
Cc1cc(SC(F)(F)C(F)(F)F)ccc1NC(=O)c1cccc(Cl)c1C(=O)NC(C)C [compound 907]							Insecticidal effect on diamondback moth (Test Example 1), judged grade [1]: A (100); Insecticidal effect on common cutworm (Test Example 2), judged grade [2]: A (100); Insecticidal effect on rice leafroller (Test Example 3), judged grade [3]: A (100)
CCCNC(=O)c1c(F)cccc1C(=O)Nc1ccc(C(F)(F)C(F)(F)F)cc1F [compound 1512]							Insecticidal effect (Test Example 1), judged from mortality [1]: A (100); Insecticidal effect (Test Example 2), judged from mortality [2, 5]: A (100); Insecticidal effect (Test Example 3), judged from mortality [3, 6]: A (100)
COc1cc(NC(=O)c2cccc([N+](=O)[O-])c2C(=O)NC(C)C)cc(C(F)(F)F)c1 [compound 691]							Insecticidal effect on diamondback moth (Test Example 1), judged grade [1]: A (100); Insecticidal effect on common cutworm (Test Example 2), judged grade [2]: D (79-50); Insecticidal effect on rice leafroller (Test Example 3), judged grade [3]: C (89-80)
Cc1cc(Br)ccc1NC(=O)c1c(I)cccc1C(=O)NC(C)C [compound 430]	A (100)	D (79-50)	D (79-50)				
CCC(CO)NC(=O)c1ccccc1C(=O)Nc1ccc(C(F)(F)C(F)(F)F)cc1C (stereo not drawn) [compound 1299]				A (100)	A (100)	A (100)	
CC(C)(C)NC(=O)c1c(Cl)cccc1C(=O)Nc1ccc(C(F)(F)C(F)(F)C(F)(F)F)cc1F [compound 1496]							Insecticidal effect (Test Example 1), judged from mortality [1]: A (100); Insecticidal effect (Test Example 2), judged from mortality [2, 5]: A (100); Insecticidal effect (Test Example 3), judged from mortality [3, 6]: A (100)
Cc1cc(Oc2ccc(C(F)(F)F)cn2)ccc1NC(=O)c1ccccc1C(=O)NC(C)C [compound 78]	A (100)	A (100)	A (100)				
Cc1cc(C(F)(F)C(F)(F)F)ccc1NC(=O)c1cccc([S+]([O-])C(F)(F)F)c1C(=O)NC(C)C (stereo not drawn) [compound 1803]							Insecticidal effect (Test Example 1), judged from mortality [1]: A (100); Insecticidal effect (Test Example 2), judged from mortality [2, 5]: A (100); Insecticidal effect (Test Example 3), judged from mortality [3, 6]: A (100)
Cc1cc(C(F)(F)C(F)(F)F)ccc1NC(=O)c1cccc(I)c1C(=O)N(C)Cc1ccccc1 [compound 1438]				A (100)	A (100)	A (100)	
CC(C)NC(=O)c1c(I)cccc1C(=O)Nc1ccc(C(F)(F)F)cc1Cl [compound 369]	A (100)	A (100)	A (100)				
CC(C)NC(=O)c1ccccc1C(=O)Nc1ccc(OC(F)(F)F)cc1 [compound 29]	A (100)	B (99-90)	A (100)				
Cc1cc(F)ccc1NC(=O)c1cccc(I)c1C(=O)NC(C)C [compound 368]	A (100)	A (100)	A (100)				
Cc1cc(C(F)(C(F)(F)F)C(F)(F)F)ccc1NC(=O)c1cc(I)ccc1C(=O)NC(C)C [compound 1251]				A (100)	A (100)	A (100)	
CC(C)NC(=O)c1cccc(Br)c1C(=O)Nc1ccc(C(F)(F)F)cc1 [compound 301]	A (100)	A (100)	D (79-50)				
Cc1cc(C(F)(F)C(F)(F)F)ccc1NC(=O)c1c(I)cccc1C(=O)NCC(F)(F)F [compound 1041]				A (100)	A (100)	A (100)	
